Experimental data reported in patent US11731982B2, “Biotin derivatives” (LIFE TECHNOLOGIES CORPORATION, priority 2010, dated 2023).

Assays:
[1] = Isolation of azido sugar containing glycoproteins from Jurkat cell lysate by click labeling and streptavidin agarose; conditions: elution 1% SDS in H2O at 95° C. for 5 min
Procedure: In order to isolate azido sugar containing glycoproteins from cell mixture, the Jurkat cells were cultured in Ac4GlcNAz supplemented media for 24 h. In this culturing, Jurkat cells were cultured in 100 mL RPMI 1640 media supplemented with 10% FBS at two T175 tissue culture flasks. When cell density reached ˜10×10^6 cells/mL, 100 μL of Ac4GlcNAz (100 mM in DMSO) and DMSO (control) were added, respectively. The flasks were incubated at 37° C. humidified incubator with 5% CO2 for 24 h. After incubation, the Jurkat cells were collected by centrifugation at 600×g for 5 min, and washed with PBS five times. The cell pellet was suspended in PBS to adjust the cell density at 50×10^6 cells/mL, and transferred 1 mL each to 1.5 mL tube. The cells were collected again by centrifugation at 600×g for 5 min. Then, 1 mL of 0.5% SDS/PBS was added to each tube, and lysated by sonication. The cell lysate was prepared at ˜3 mg/mL in 0.5% SDS/PBS.
Cell lysate was incubated with N3′-ethyl biotin alkyne 118 or biotin alkyne in the presence of CuSO4, THPTA, and sodium ascorbate at room temperature as described below. N3′-Ethyl biotin alkyne 118 and biotin alkyne (Invitrogen) were used to perform parallel protein enrichment experiments. Biotin alkyne has the structure: […]

[2] = target: T1, streptavidin (Streptomyces avidinii, UniProt P22629); assay: Kinetic measurement of rate constants, label-free ForteBio system, N3′-ethyl biotin immobilized on sensor tips; format: binding
T1 construct: purchased ForteBio
T1 sequence (P22629 25-183): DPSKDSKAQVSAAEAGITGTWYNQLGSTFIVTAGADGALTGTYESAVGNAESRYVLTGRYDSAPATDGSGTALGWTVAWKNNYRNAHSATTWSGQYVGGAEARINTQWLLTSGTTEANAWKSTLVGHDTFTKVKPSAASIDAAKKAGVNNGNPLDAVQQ
Procedure: The binding constant and on-and-off rate constant of N3′-ethyl biotin with streptavidin were tested using a label-free ForteBio system. The N3′-ethyl biotin 117 was covalently immobilized to amine reactive sensor tips from ForteBio. To generate the association curve, the N3′-ethyl biotin labeled biosensor tips were incubated with streptavidin at 25° C. The dissociation curve was determined by incubating the streptavidin bound sensor tips in PBS buffer described above, as well as in PBS buffer containing 2 mM biotin at 25° C. […] The dissociation constant kD of N3′-ethyl biotin is about 0.8 nM.
The details of fluorescent capture and release assay were follows. All interaction analyses were conducted at 25° C. in kinetic buffer (PBS, 0.1% BSA, 0.05% Tween-20, pH 7.2). The amine reactive biosensor tips from ForteBio were prewet for 20 min in water prior to use. The prepared samples and buffers were added to a 96-well microplate at 200 μL per well according the following sample layout, and the entire 96-well plate was agitated at 1000 rpm. Eight biosensor tips were performed the kinetic assay in parallel. Each amine reactive biosensor tip was equilibrated in MES buffer for 5 min, then activated with EDC/NHS for 5 min. The activated biosensor tip was labeled with 2 mM N3′-ethyl biotin 117 for 10 min, then quenched with 1 M ethanolamine for 5 min. The N3′-ethyl biotin 117 immobilized biosensor tip was incubated in kinetic buffer for 5 min to generate baseline, then incubated with 2 μg/mL streptavidin in kinetic buffer or kinetic buffer (control) at 1000 rpm for 10 min to generate association curve, followed by incubation with kinetic buffer or 2 mM biotin in kinetic buffer at 1000 rpm for 10 min to generate dissociation curve. The ForteBio Data Analysis Octet software was used to process the curve by subtracting sample curve from reference curve, and the kinetic data was calculated by fitting curve.

[3] = target: T2, M-280 Streptavidin Dynabeads (streptavidin) (Streptomyces avidinii, UniProt P22629); assay: Fluorescent capture and release assay on M-280 Streptavidin Dynabeads; format: binding
T2 construct: purchased Invitrogen
T2 sequence (P22629 25-183): as above
Procedure: In order to evaluate the binding affinity and reversibility of N3′-ethyl biotin with streptavidin, a simple fluorescent binding and release assay was designed. Briefly, N3′-ethyl biotin-AF488 conjugate 117 was incubated with M-280 Streptavidin Dynabeads in pH 7.4 PBS buffer. After 25 min incubation at room temperature, the magnetic beads were separated from the supernatant, which was used to measure the capture efficiency, by measuring the fluorescent intensity of the supernatant solution to determine the amount that was not captured. Then, the N3′-ethyl biotin 117 bound magnetic beads were washed with PBS buffer to remove weak or non-specific binding. The reversibility was tested by incubating the N3′-ethyl biotin 117 bound magnetic beads with 2 mM biotin in PBS buffer at room temperature for 5 min, then the magnetic beads were concentrated by a magnet, and the fluorescent intensity in the solution was measured to determine the amount that was released. As a control, biocytin-AF488 conjugate was also tested in the same assay format.
The details of fluorescent capture and release assay were as follows. 100 μL of M280 Streptavidin Dynabeads (10 mg/mL, Invitrogen) was transferred to a 1.5 mL centrifuge tube, and washed with 500 μL PBS three times. […]

For `C#CCNC(=O)CCOCCOCCOCCOCCNC(=O)CCCC[C@@H]1SC[C@@H]2NC(=O)N[C@@H]21` [biotin alkyne], the “quality of isolated proteins” value [1] was “contaminated with streptavidin”.
In the case of `CCN1C(=O)N[C@H]2CS[C@@H](CCCCC(=O)O)[C@H]21` [N3′-ethyl biotin], the “off-rate koff in the presence of 1 mM bis-biotin competing reagent” value ([2]; 1 mM bis-biotin) is reported as ~5.8×10^−2 S^−1, the “on-rate kon with streptavidin” value ([2]; 25° C.) is reported as ~1.5×10^5 M^−1S^−1 and the “off-rate koff in the presence of 2 mM biotin” value ([2]; 25° C., 2 mM biotin) is reported as ~5.8×10^−2 S^−1. It also gave a Kd ([2]; 25° C., read-out: dissociation constant kD) of roughly 0.8 nM.
`N[C@@H](CCCCNC(=O)CCCC[C@@H]1SC[C@@H]2NC(=O)N[C@@H]21)C(=O)O` [Biocytin] gave a Capture efficiency ([3]; 0.2 μM in PBS pH 7.4, 25 min room temperature) of 96 ± 2% and a Release efficiency ([3]; 2 mM biotin in PBS, room temperature 5 min) of less than 5%.
For Biotin, the “reversibility of streptavidin binding” value ([2]; in the presence of 1 mM bis-biotin competing reagent) was “almost irreversible”.
